Earlier results, collected in patent US8362030B2, “Tricyclic derivatives as inhibitors of poly(ADP-ribose) polymerase (PARP)” (Istituto di Ricerche di Biologia Molecolare P. Angeletti …, priority 2008, dated 2013).

System: ischemia and reperfusion of the heart
Details: rabbits

Structure (SMILES)	reduction in infarct size (single injection 1 mg/kg)	reduction in infarct size in the heart (single injection 10 mg/kg, one minute before occlusion or before reperfusion)
Oc1cccc2c(O)nccc12 [1,5-dihydroxyisoquinoline]	38-48%	–
NC(=O)c1cccc(N)c1 [3-amino-benzamide]	–	32-42%
